Here are results for eleven compounds from US8450243B2, “Herbicidal quinoline and 1,8-naphthyridine compounds” (Syngenta Limited, priority 2009, dated 2013).

What all share (type): in vivo
For experiment [1], the system named is Abuthilon theophrasti (ABUTH). The experiment in a line: Herbicidal glasshouse test, post-emergence. The settings on record: POST Application, evaluated after 13 days; for pest or weed control at 250 g/ha: Abutilon theophrasti, post-emergence, 312 h, read-out: damage to plant (100=total damage to plant; 0=no damage to plant); for damage to plant (100=total damage to plant; 0=no damage to plant): 250 g/ha. As to the method:
(§1) Seeds of a variety of test species were sown in standard soil in pots (Alopecurus myosuroides (ALOMY), Setaria faberi (SETFA), Echinochloa crus-galli (ECHCG), Abuthilon theophrasti (ABUTH) and Amaranthus retoflexus (AMARE)). After cultivation for one day (pre-emergence) or after 8 days cultivation (post-emergence) under controlled conditions in a glasshouse (at 24/16° C., day/night; 14 hours light; 65% humidity), the plants were sprayed with an aqueous spray solution derived from the formulation of the technical active ingredient in acetone/water (50:50) solution containing 0.5% Tween 20 (polyoxyethelyene sorbitan monolaurate, CAS RN 9005-64-5). Compounds were applied at 250 g/ha. The test plants were then grown in a glasshouse under controlled conditions in a glasshouse (at 24/16° C., day/night; 14 hours light; 65% humidity) and watered twice daily. After 13 days for pre and post-emergence, the test was evaluated (100=total damage to plant; 0=no damage to plant).

Experiment [2] relates to Alopecurus myosuroides (ALOMY). The experiment in a line: Herbicidal glasshouse test, post-emergence. Particulars: POST Application, evaluated after 13 days; for pest or weed control at 250 g/ha: Alopecurus myosuroides, post-emergence, 312 h, read-out: damage to plant (100=total damage to plant; 0=no damage to plant); for damage to plant (100=total damage to plant; 0=no damage to plant): 250 g/ha. The method, then:
as §1

Experiment [3] deals with Amaranthus retoflexus (AMARE). The experiment in a line: Herbicidal glasshouse test, post-emergence. Particulars: POST Application, evaluated after 13 days; for pest or weed control at 250 g/ha: Amaranthus retroflexus, post-emergence, 312 h, read-out: damage to plant (100=total damage to plant; 0=no damage to plant); for damage to plant (100=total damage to plant; 0=no damage to plant): 250 g/ha. The method, then: as §1

Experiment [4] deals with Echinochloa crus-galli (ECHCG). Put plainly: Herbicidal glasshouse test, post-emergence. Particulars: POST Application, evaluated after 13 days; for pest or weed control at 250 g/ha: Echinochloa crus-galli, post-emergence, 312 h, read-out: damage to plant (100=total damage to plant; 0=no damage to plant); for damage to plant (100=total damage to plant; 0=no damage to plant): 250 g/ha. As to the method:
as §1

Experiment [5] relates to Setaria faberi (SETFA). Put plainly: Herbicidal glasshouse test, post-emergence. The settings on record: POST Application, evaluated after 13 days; for pest or weed control at 250 g/ha: Setaria faberi, post-emergence, 312 h, read-out: damage to plant (100=total damage to plant; 0=no damage to plant); for damage to plant (100=total damage to plant; 0=no damage to plant): 250 g/ha. As to the method:
as §1

Experiment [6] concerns Abuthilon theophrasti (ABUTH). The experiment in a line: Herbicidal glasshouse test, pre-emergence. The settings on record: PRE Application, evaluated after 13 days; for pest or weed control at 250 g/ha: Abutilon theophrasti, pre-emergence, 312 h, read-out: damage to plant (100=total damage to plant; 0=no damage to plant); for damage to plant (100=total damage to plant; 0=no damage to plant): 250 g/ha. As to the method: as §1

Experiment [7] has as its system Alopecurus myosuroides (ALOMY). Put plainly: Herbicidal glasshouse test, pre-emergence. The settings on record: PRE Application, evaluated after 13 days; for pest or weed control at 250 g/ha: Alopecurus myosuroides, pre-emergence, 312 h, read-out: damage to plant (100=total damage to plant; 0=no damage to plant); for damage to plant (100=total damage to plant; 0=no damage to plant): 250 g/ha. The method, then: as §1

Experiment [8] deals with Amaranthus retoflexus (AMARE). Put plainly: Herbicidal glasshouse test, pre-emergence. The settings on record: PRE Application, evaluated after 13 days; for pest or weed control at 250 g/ha: Amaranthus retroflexus, pre-emergence, 312 h, read-out: damage to plant (100=total damage to plant; 0=no damage to plant); for damage to plant (100=total damage to plant; 0=no damage to plant): 250 g/ha. The method, then:
as §1

Experiment [9] relates to Echinochloa crus-galli (ECHCG). The experiment in a line: Herbicidal glasshouse test, pre-emergence. Particulars: PRE Application, evaluated after 13 days; for pest or weed control at 250 g/ha: Echinochloa crus-galli, pre-emergence, 312 h, read-out: damage to plant (100=total damage to plant; 0=no damage to plant); for damage to plant (100=total damage to plant; 0=no damage to plant): 250 g/ha. The method, then: as §1

Experiment [10] relates to Setaria faberi (SETFA). The experiment in a line: Herbicidal glasshouse test, pre-emergence. Particulars: PRE Application, evaluated after 13 days; for pest or weed control at 250 g/ha: Setaria faberi, pre-emergence, 312 h, read-out: damage to plant (100=total damage to plant; 0=no damage to plant); for damage to plant (100=total damage to plant; 0=no damage to plant): 250 g/ha. The method, then:
as §1

As to `COCCn1c(=O)c(C(=O)C2C(=O)CCCC2=O)cc2cc(F)c(C)nc21` [Compound 1.47], the pest or weed control at 250 g/ha in experiment [1] was determined as 70%; in experiment [2], 80%; in [3], 70%; in experiment [4], 90%; in the experiment on Setaria faberi (SETFA) [5], 80%; in experiment [6] it was 90%. Besides, the pest or weed control at 250 g/ha was 50% in [7], 100% in experiment [8], 90% in experiment [9] and 90% in the experiment with Setaria faberi (SETFA) [10].
On to `O=C1CCCC(=O)C1C(=O)c1cc2cc(F)cnc2n(-c2cc(Cl)cc(Cl)c2)c1=O` [Compound 4.23], for which the “damage to plant (100=total damage to plant; 0=no damage to plant)” value in experiment [1] is given as 80; in [2], 70; in [3], 80; in [4], 80; in the experiment on Setaria faberi (SETFA) [5] it was 70; in experiment [6] it was 80. Moreover, the “damage to plant (100=total damage to plant; 0=no damage to plant)” value came out at 90 in [7], 70 in [8], 100 in [9] and 90 in the experiment on Setaria faberi (SETFA) [10].
Take `Cc1cc(C)c2cc(C(=O)C3C(=O)CCCC3=O)c(=O)n(C)c2n1` [Compound 1.42]: the pest or weed control at 250 g/ha in experiment [1] is 50%; in experiment [2], 0%; in experiment [3] it was 70%; in experiment [4] it was 70%; in the experiment with Setaria faberi (SETFA) [5] it was 60%; in experiment [6], 0%. Further, the pest or weed control at 250 g/ha (in [7]; in [8]; in experiment [9]; in the experiment on Setaria faberi (SETFA) [10]) was 0% throughout.
For the compound `O=C1CCCC(=O)C1C(=O)c1cc2cc(F)cnc2n(Cc2ccccc2F)c1=O` [Compound 4.15], the “damage to plant (100=total damage to plant; 0=no damage to plant)” value is reported as 80 in experiment [1]; 30 in experiment [2]; 50 in experiment [3]; 80 in [4]; 70 with Setaria faberi (SETFA) [5]; 70 in experiment [6]. Moreover, the “damage to plant (100=total damage to plant; 0=no damage to plant)” value is recorded as 0 in experiment [7], 50 in experiment [8], 80 in experiment [9] and 0 in the experiment with Setaria faberi (SETFA) [10].
Take `Cc1ccccc1-n1c(=O)c(C(=O)C2C(=O)CCCC2=O)cc2cc(F)cnc21` [Compound 4.22]: the “damage to plant (100=total damage to plant; 0=no damage to plant)” value came out at 80 in [1]; 80 in experiment [2]; 70 in experiment [3]; 70 in experiment [4]; 80 with Setaria faberi (SETFA) [5]; 90 in [6]. Also, the “damage to plant (100=total damage to plant; 0=no damage to plant)” value in experiment [7] was determined as 90; in [8], 100; in experiment [9], 100; in the experiment with Setaria faberi (SETFA) [10], 100.
Regarding `O=C1CCCC(=O)C1C(=O)c1cc2cc(F)cnc2n(CCOc2ccccc2)c1=O` [Compound 4.16], the pest or weed control at 250 g/ha in [1] stood at 80%; in experiment [2], 40%; in [3], 50%; in [4], 80%; with Setaria faberi (SETFA) [5] it was 60%; in [6], 50%. The pest or weed control at 250 g/ha in [7] came out at 20%; in [8] it was 30%; in experiment [9], 50%; in the experiment with Setaria faberi (SETFA) [10], 20%.
For the compound `O=C1CCCC(=O)C1C(=O)c1cc2cc(F)cnc2n(CC(F)F)c1=O` [Compound 1.45], the “damage to plant (100=total damage to plant; 0=no damage to plant)” value in experiment [1] is reported as 80; in experiment [2] it was 60; in experiment [3], 80; in [4] it was 80; in the experiment with Setaria faberi (SETFA) [5], 80; in [6], 100. Besides, the “damage to plant (100=total damage to plant; 0=no damage to plant)” value in experiment [7] was found to be 70; in experiment [8], 100; in experiment [9], 100; in the experiment with Setaria faberi (SETFA) [10] it was 80.
As for `O=C1CCCC(=O)C1C(=O)c1cc2cc(F)cnc2n(-c2ccc(F)cc2F)c1=O` [Compound 4.35], the “damage to plant (100=total damage to plant; 0=no damage to plant)” value in [1] came out at 80; in [2] it was 90; in [3] it was 90; in experiment [4], 90; in the experiment on Setaria faberi (SETFA) [5], 80; in [6] it was 100. In addition, the “damage to plant (100=total damage to plant; 0=no damage to plant)” value is recorded as 90 in [7], 100 in experiment [8], 100 in experiment [9] and 100 in the experiment with Setaria faberi (SETFA) [10].
Regarding `Cn1c(=O)c(C(=O)C2C(=O)CCCC2=O)cc2cccnc21` [Compound 1.29], the pest or weed control at 250 g/ha in experiment [1] came to 90%; in experiment [2], 30%; in [3], 90%; in experiment [4], 80%; in the experiment with Setaria faberi (SETFA) [5], 90%; in experiment [6] it was 90%. Also, the pest or weed control at 250 g/ha in experiment [7] worked out at 30%; in experiment [8] it was 100%; in experiment [9], 100%; in the experiment with Setaria faberi (SETFA) [10], 10%.
Consider `Cc1ccc(-n2c(=O)c(C(=O)C3C(=O)CCCC3=O)cc3cc(F)cnc32)cc1` [Compound 4.24], for which the “damage to plant (100=total damage to plant; 0=no damage to plant)” value in experiment [1] is given as 90; in experiment [2], 70; in experiment [3], 80; in experiment [4], 80; in the experiment with Setaria faberi (SETFA) [5] it was 80; in [6] it was 100. Moreover, the “damage to plant (100=total damage to plant; 0=no damage to plant)” value in [7] is 80; in experiment [8] it was 100; in experiment [9], 100; with Setaria faberi (SETFA) [10] it was 90.
As to `COc1ccc(Cn2c(=O)c(C(=O)C3C(=O)CCCC3=O)cc3cc(F)cnc32)cc1` [Compound 4.17], the “damage to plant (100=total damage to plant; 0=no damage to plant)” value is listed as 70 in experiment [1]; 0 in experiment [2]; 50 in experiment [3]; 80 in [4]; 60 in the experiment on Setaria faberi (SETFA) [5]; 70 in experiment [6]. The “damage to plant (100=total damage to plant; 0=no damage to plant)” value came to 0 in experiment [7], 90 in [8], 70 in experiment [9] and 20 in the experiment with Setaria faberi (SETFA) [10].
